Measured values taken from patent publication US5120647A, “Phospholipase A2 inhibitor” (Shionogi & Co., Ltd., priority 1989, dated 1992).
Counter-ions that a name gives are not always drawn. Like-named read-outs stand apart in the source and are kept apart here.

What was measured:
PLA2 from Rat Platelet = target: T1, PLA2 from Rat Platelet (Rattus norvegicus, UniProt P14423); assay: PLA2 inhibitory activity (release of free fatty acid from [14C]phosphatidylethanolamine); format: biochemical; conditions: for IC50: 37° C., 20 minutes, pH 7.4; for PLA2 inhibitory effect (in words): statement in words
T1 construct: PLA2 released from thrombin-stimulated rat platelets; from tissue; host or cells: thrombin-stimulated rat platelets (released enzyme, purified on MD 7.1 antibody-coupled Sepharose)
T1 sequence (P14423 22-146): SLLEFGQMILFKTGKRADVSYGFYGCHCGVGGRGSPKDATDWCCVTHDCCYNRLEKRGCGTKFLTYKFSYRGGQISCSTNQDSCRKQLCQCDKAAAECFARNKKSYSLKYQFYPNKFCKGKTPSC
Procedure: The amount of Cinatrin (μg/ml) effective for inhibiting 50% of PLA2 activity (IC50) was determined.
PLA2 inhibitory activities of Cinatrin and its derivatives were determined according to the following procedure.
PLA2 released from thrombin-stimulated rat platelets was prepared by immuno-affinity chromatography using antibody MD 7.1-coupled Sepharose (Murakami et. al, J. Biochem 104: 884-888, 1988). The standard assay conditions included, 250 μl of Tris-HCl buffer (100 mM, pH 7.4), CaCl2 (3 mM), 40 μM [^14 C]phosphatidylethanolamine and the enzyme. The reaction was started by the addition of the enzyme solution. Following incubation at 37° C. for 20 minutes, the reaction was terminated by addition of 1.25 ml of Dole's reagent (Dole, V. P. & H, Meinerts, J. Biol. Chem. 235: 2595-2599, 1960). Then released free fatty acid was extracted, and counted in Liquiflour (Du Pont-New England Nuclear) to determine the release of the radioactivity. Inhibition activity is expressed as percent of enzyme control.

Solubility = format: physicochemical
[1] = Table 5, methyl ester, read-out: PLA2 Inhibitory Activity, IC50, methyl ester (converted)
[2] = Table 5, seco acid (Na), read-out: PLA2 Inhibitory Activity, IC50, seco acid (Na) (converted)
[3] = Table 5, lactone, read-out: PLA2 Inhibitory Activity, IC50, lactone (converted)

| IC50 (PLA2 from Rat Platelet; [1]) [µM] | IC50 (PLA2 from Rat Platelet; [3]) [µM] | Solubility in organic solvents (Solubility) | SMILES | further results |
| --- | --- | --- | --- | --- |
| 216 |  |  | C=CCCCCCCCCC1CC2(OC(=O)C(O)C2(O)C(=O)OC)C(=O)O1 (centres unmarked) [Cinatrin A methyl ester] |  |
|  |  |  | C=CCCCCCCCCC(O)CC(O)(C(=O)O)C(O)(C(=O)O)C(O)C(=O)O (centres unmarked) [Cinatrin A seco acid (Na salt)] | IC50 (PLA2 from Rat Platelet; [2]): 138 µM |
|  | 316 | soluble | C=CCCCCCCCCC1CC2(OC(=O)C(O)C2(O)C(=O)O)C(=O)O1 (centres unmarked) [Cinatrin A, 8-(dec-9-ene-1-yl)-3,4-dihydroxy-2,6-dioxo-1,7-dioxaspiro [5,5]-nonane-4-carboxylic acid] | Solubility in water (Solubility): soluble |
| 215 |  |  | CCCCCCCCCCC1CC2(OC(=O)C(O)C2(O)C(=O)OC)C(=O)O1 (centres unmarked) [Cinatrin B methyl ester] |  |
|  |  |  | CCCCCCCCCCC(O)CC(O)(C(=O)O)C(O)(C(=O)O)C(O)C(=O)O (centres unmarked) [Cinatrin B seco acid (Na salt)] | IC50 (PLA2 from Rat Platelet; [2]): 75.7 µM |
|  | 147 | soluble | CCCCCCCCCCC1CC2(OC(=O)C(O)C2(O)C(=O)O)C(=O)O1 (centres unmarked) [Cinatrin B, 8-(decane-1-yl)-3,4-dihydroxy-2,6-dioxo-1,7-dioxaspiro[5,5]-nonane-4-carboxylic acid] | PLA2 inhibitory effect (in words) (PLA2 from Rat Platelet): particularly effective |
| 142 |  |  | CCCCCCCCCCCCC1(C(=O)OC)OC(=O)C(O)C1(O)C(=O)OC (centres unmarked) [Cinatrin C1 methyl ester] |  |
|  |  |  | CCCCCCCCCCCCC(O)(C(=O)O)C(O)(C(=O)O)C(O)C(=O)O (centres unmarked) [Cinatrin C1 seco acid (Na salt)] | IC50 (PLA2 from Rat Platelet; [2]): 70.1 µM |
|  | > 801 | soluble | CCCCCCCCCCCCC1(C(=O)O)OC(=O)C(O)C1(O)C(=O)O (centres unmarked) [Cinatrin C1, 2-dodecyl-3,4-dihydroxy-5-oxo-tetrahydrofuran-2,3-dicarboxylic acid] | IC50 (PLA2 from Rat Platelet; Table 1, lactone form, read-out: IC50, lactone form (Inhibitory Effect on PLA2 from Rat Platelet)): > 801 µM; Change of PLA2 inhibitory activity on conversion of lactone into ester or seco acid form (in words) (PLA2 from Rat Platelet; ester or seco acid form versus lactone form): becomes more active when it is converted into an ester or seco acid form; PLA2 inhibitory effect (in words) (PLA2 from Rat Platelet): moderately active in its lactone form; Solubility in water (Solubility): slightly soluble |
| 745 |  |  | CCCCCCCCCCCC(O)C1C(=O)OC(C(=O)OC)C1(O)C(=O)OC (centres unmarked) [Cinatrin C2 methyl ester] |  |
|  |  |  | CCCCCCCCCCCC(O)C(C(=O)O)C(O)(C(=O)O)C(O)C(=O)O (centres unmarked) [Cinatrin C2 seco acid (Na salt)] | IC50 (PLA2 from Rat Platelet; [2]): 44.6 µM |
|  | 801 | soluble | CCCCCCCCCCCC(O)C1C(=O)OC(C(=O)O)C1(O)C(=O)O (centres unmarked) [Cinatrin C2, 3-hydroxy-4-(1-hydroxydodecyl)-5-oxo-tetrahydrofuran-2,3-dicarboxylic acid] |  |
| 133 |  |  | CCCCCCCCCCCCC1(O)C(=O)OC(C(=O)OC)C1(O)C(=O)OC (centres unmarked) [Cinatrin C3 methyl ester] |  |
|  | 78.8 | soluble | CCCCCCCCCCCCC1(O)C(=O)OC(C(=O)O)C1(O)C(=O)O (centres unmarked) [Cinatrin C3, 4-dodecyl-3,4-dihydroxy-5-oxo-tetrahydrofuran-2,3-dicarboxylic acid] | PLA2 inhibitory effect (in words) (PLA2 from Rat Platelet): particularly effective |
